Test results as given in the supplement of paper PMC10307832.

Key:
Assay in all cases: relative viability (nuclei count vs DMSO), 5 days (fraction); higher = more cells survive
[1] = system: NCI-H441
Outline: (§1)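 Lung cancer cell lines were seeded in 1536-well plates and dosed by pin tool the next day, with either a single drug or a fixed anchor-drug dose combined with five library-drug doses (not always all listed) spaced in √10 steps. Five days later, one step fixed the cells and stained their nuclei (final 0.05% Triton X-100, 1% formaldehyde, 1 ug/ml Hoechst), and nuclei were counted on 4× images. Relative viability is the nuclei count in treated wells divided by the count in vehicle wells, and each value is the median of duplicate plates.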

[2] = system: 201T
Outline: as §1

[3] = system: SK-LU-1
Outline: as §1

[4] = system: NCI-H650
Outline: as §1

[5] = system: LCLC-97TM1
Outline: as §1

[6] = system: NCI-H1355
Outline: as §1

[7] = system: SW 1573
Outline: as §1

[8] = system: NCI-H1563
Outline: as §1

[9] = system: NCI-H1651
Outline: as §1

[10] = system: NCI-H838
Outline: as §1

[11] = system: NCI-H322M
Outline: as §1

[12] = system: NCI-H2347
Outline: as §1

[13] = system: BEN
Outline: as §1

[14] = system: HCC-78
Outline: as §1

[15] = system: NCI-H3122
Outline: as §1

[16] = system: HOP-62
Outline: as §1

[17] = system: LOU-NH91
Outline: as §1

[18] = system: NCI-H2126
Outline: as §1

[19] = system: NCI-H1944
Outline: as §1

[20] = system: NCI-H1915
Outline: as §1

[21] = system: CAL-12T
Outline: as §1

SMILES: Cc1cn(-c2cc(NC(=O)c3ccc(C)c(Nc4nccc(-c5cccnc5)n4)c3)cc(C(F)(F)F)c2)cn1 [Nilotinib] + C[C@@H](Oc1cc(-c2cnn(C3CCNCC3)c2)cnc1N)c1c(Cl)ccc(F)c1Cl [Crizotinib] (partner 1 µM)
- relative viability ([1]; first compound 0.001 µM): 0.728
- relative viability ([1]; first compound 0.003162 µM): 0.825
- relative viability ([1]; first compound 0.01 µM): 0.601
- relative viability ([1]; first compound 0.1 µM): 0.652
- relative viability ([2]; first compound 0.001 µM): 1.01
- relative viability ([2]; first compound 0.003162 µM): 1.07
- relative viability ([2]; first compound 0.01 µM): 0.91
- relative viability ([2]; first compound 0.1 µM): 1.07
- relative viability ([3]; first compound 0.001 µM): 0.893
- relative viability ([3]; first compound 0.003162 µM): 0.888
- relative viability ([3]; first compound 0.01 µM): 0.933
- relative viability ([3]; first compound 0.03162 µM): 0.805
- relative viability ([3]; first compound 0.1 µM): 0.693
- relative viability ([4]; first compound 0.001 µM): 0.637
- relative viability ([4]; first compound 0.003162 µM): 0.551
- relative viability ([4]; first compound 0.01 µM): 0.844
- relative viability ([4]; first compound 0.03162 µM): 0.601
- relative viability ([4]; first compound 0.1 µM): 0.715
- relative viability ([5]; first compound 0.001 µM): 0.246
- relative viability ([5]; first compound 0.003162 µM): 0.328
- relative viability ([5]; first compound 0.01 µM): 0.712
- relative viability ([5]; first compound 0.03162 µM): 0.311
- relative viability ([5]; first compound 0.1 µM): 0.469
- relative viability ([6]; first compound 0.001 µM): 1.05
- relative viability ([6]; first compound 0.003162 µM): 1.15
- relative viability ([6]; first compound 0.01 µM): 1.38
- relative viability ([6]; first compound 0.03162 µM): 0.909
- relative viability ([6]; first compound 0.1 µM): 1.09
- relative viability ([7]; first compound 0.001 µM): 0.798
- relative viability ([7]; first compound 0.003162 µM): 0.882
- relative viability ([7]; first compound 0.01 µM): 0.946
- relative viability ([7]; first compound 0.03162 µM): 0.826
- relative viability ([7]; first compound 0.1 µM): 0.823
- relative viability ([8]; first compound 0.001 µM): 0.772
- relative viability ([8]; first compound 0.003162 µM): 0.856
- relative viability ([8]; first compound 0.01 µM): 0.757
- relative viability ([8]; first compound 0.03162 µM): 0.914
- relative viability ([8]; first compound 0.1 µM): 0.739
- relative viability ([9]; first compound 0.001 µM): 0.853
- relative viability ([9]; first compound 0.003162 µM): 0.986
- relative viability ([9]; first compound 0.01 µM): 1
- relative viability ([9]; first compound 0.03162 µM): 0.838
- relative viability ([9]; first compound 0.1 µM): 0.816
- relative viability ([10]; first compound 0.001 µM): 0.896
- relative viability ([10]; first compound 0.003162 µM): 0.81
- relative viability ([10]; first compound 0.01 µM): 1.03
- relative viability ([10]; first compound 0.03162 µM): 0.673
- relative viability ([10]; first compound 0.1 µM): 0.926
- relative viability ([11]; first compound 0.001 µM): 1.06
- relative viability ([11]; first compound 0.003162 µM): 0.869
- relative viability ([11]; first compound 0.03162 µM): 0.727
- relative viability ([11]; first compound 0.1 µM): 0.984
- relative viability ([12]; first compound 0.001 µM): 0.698
- relative viability ([12]; first compound 0.003162 µM): 0.731
- relative viability ([12]; first compound 0.01 µM): 0.686
- relative viability ([12]; first compound 0.03162 µM): 0.629
- relative viability ([12]; first compound 0.1 µM): 0.853
- relative viability ([13]; first compound 0.001 µM): 0.731
- relative viability ([13]; first compound 0.003162 µM): 0.978
- relative viability ([13]; first compound 0.01 µM): 1.21
- relative viability ([13]; first compound 0.1 µM): 0.971
- relative viability ([14]; first compound 0.001 µM): 0.351
- relative viability ([14]; first compound 0.003162 µM): 0.239
- relative viability ([14]; first compound 0.01 µM): 0.432
- relative viability ([14]; first compound 0.03162 µM): 0.333
- relative viability ([14]; first compound 0.1 µM): 0.361
- relative viability ([15]; first compound 0.001 µM): 0.298
- relative viability ([15]; first compound 0.003162 µM): 0.314
- relative viability ([15]; first compound 0.01 µM): 0.33
- relative viability ([15]; first compound 0.03162 µM): 0.3
- relative viability ([15]; first compound 0.1 µM): 0.328
- relative viability ([16]; first compound 0.001 µM): 0.738
- relative viability ([16]; first compound 0.003162 µM): 1.22
- relative viability ([16]; first compound 0.01 µM): 1.13
- relative viability ([16]; first compound 0.03162 µM): 0.796
- relative viability ([16]; first compound 0.1 µM): 0.738
- relative viability ([17]; first compound 0.001 µM): 0.763
- relative viability ([17]; first compound 0.003162 µM): 0.722
- relative viability ([17]; first compound 0.01 µM): 0.76
- relative viability ([17]; first compound 0.03162 µM): 0.722
- relative viability ([17]; first compound 0.1 µM): 0.768
- relative viability ([18]; first compound 0.001 µM): 1.02
- relative viability ([18]; first compound 0.003162 µM): 1.23
- relative viability ([18]; first compound 0.01 µM): 1.39
- relative viability ([18]; first compound 0.03162 µM): 0.966
- relative viability ([18]; first compound 0.1 µM): 0.943
- relative viability ([19]; first compound 0.001 µM): 1.18
- relative viability ([19]; first compound 0.003162 µM): 1.24
- relative viability ([19]; first compound 0.01 µM): 1.21
- relative viability ([19]; first compound 0.03162 µM): 1.16
- relative viability ([19]; first compound 0.1 µM): 0.939
- relative viability ([20]; first compound 0.001 µM): 0.73
- relative viability ([20]; first compound 0.003162 µM): 1.18
- relative viability ([20]; first compound 0.01 µM): 1.24
- relative viability ([20]; first compound 0.03162 µM): 0.787
- relative viability ([20]; first compound 0.1 µM): 0.848
- relative viability ([21]; first compound 0.003162 µM): 0.519
- relative viability ([21]; first compound 0.01 µM): 0.902
- relative viability ([21]; first compound 0.03162 µM): 0.345
- relative viability ([21]; first compound 0.1 µM): 0.6
